US20210170035A1, “METHOD OF TREATING CANCER BY TARGETING MYELOID-DERIVED SUPPRESSOR CELLS” (priority 2016, published 2021)
Read-outs that look alike come from different tables or passages of the source.

Experiments:
TAMs/MDSCs [1] = assay: Nitric oxide assay (Greiss reagent) after in vitro TAMs/MDSCs screening; format: cell-based, mouse
Description: (§1) 10 million 4T1 cells in 300 μL PBS were injected into the peritoneal cavity. Peritoneal ascites were collected between day 7 and day 10 by peritoneal lavage. […] Cells were counted and ready for flow cytometry staining and in vitro screening.
(§2) Different concentrations of screening drugs listed in Table 2 were dissolved in the same medium and were added to each well containing 0.5 millions of cells in 300 μL medium. Wells containing 0.5 million cells in 300 μL medium without addition of drugs were kept as untreated control. Three extra wells were charged with 300 μL medium without cells and drugs to be kept as background control. […] At the end of incubation, supernatant was collected for IL-10 ELISA and nitric oxide assay. Cells were washed twice with 300 μL PBS, and were then ready for the arginase assay.
Nitric oxide production was measured with Greiss reagent as reported in Je-In Youn, Srinivas Nagaraj, Michelle Collazo, and Dmitry I. Gabrilovich, Subsets of Myeloid-Derived Suppressor Cells in Tumor Bearing Mice′, J Immunol. […] Briefly, after in vitro incubation of TAMs/MDSCs with different drugs, 50 μL of supernatant from each well was transferred into a 96-well plat bottom clear plate. 20 μL of Greiss reagent and 30 μL of DI water were added to each well with 50 μL of supernatant. The reaction solution was kept in the dark at room temperature for 30 min prior to a plate reader measurement. The absorbance at 548 nm is correlated to concentration of nitric oxide produced by TAMs/MDSCs. Results are shown in FIG. 9, FIG. 10, FIG. 11 and FIG. 14.

TAMs/MDSCs [2] = assay: IL-10 ELISA assay after in vitro TAMs/MDSCs screening; format: cell-based, mouse; conditions: co-culture with drug; absorbance at 492 nm
Description: as §1
Cells isolated from the peritoneal model were re-suspended in completed RPMI 1640 medium supplemented with 10 ng/mL mouse GM-CSF and seeded into 96 well plates. Different concentrations of screening drugs listed in Table 2 were dissolved in the same medium and were added to each well containing 0.5 millions of cells in 300 μL medium. Wells containing 0.5 million cells in 300 μL medium without addition of drugs were kept as untreated control. Three extra wells were charged with 300 μL medium without cells and drugs to be kept as background control. Cells were then incubated at 37° C. in a humidified 95% air 5% CO2 atmosphere for 24 hours to 48 hours. At the end of incubation, supernatant was collected for IL-10 ELISA and nitric oxide assay. Cells were washed twice with 300 μL PBS, and were then ready for the arginase assay.
IL-10 production by TAMs/MDSCs after in vitro incubation with different compounds was determined by ELISA assay following the protocol provided with the Mouse IL-10 DuoSet ELISA by R&D Systems. Briefly, a high affinity 96-well plate was coated with 100 μL of diluted capture antibody per well with the working concentration of 4 μg/mL in PBS without carrier protein. The plate was sealed, and incubated overnight at room temperature. Each well was aspirated, and washed three times with 400 μL of wash buffer (0.05% Tween®20 in PBS, pH 7.2-7.4) using a squirt bottle. After the last wash, remaining wash buffer was removed by inverting the plate and blotting it against clean paper towels. The plates were blocked by adding 300 μL of reagent diluent (1% BSA in PBS, pH 7.2-7.4) to each well, and incubated at room temperature for 1 hour. Aspiration/wash was repeated three times in the same manner as previously described. The plates were ready for sample addition. 100 μL of sample supernatant from TAMs/MDSCs in vitro screening were added to each well. The plate was covered with an adhesive strip and incubated for 2 hours at room temperature. The previously mentioned aspiration/wash procedure was repeated three times. 100 μL of the detection antibody with the concentration of 300 ng/mL in reagent diluent was added to each well. The plate was covered with a new adhesive strip and incubated for 2 hours at room temperature. The previously mentioned aspiration/wash procedure was repeated three times. 100 μL of working dilution of streptavidin-HRP (1 to 40 dilution in reagent dilute) was added to each well. The plate was covered and incubated for 20 minutes at room temperature in dark. The previously mentioned aspiration/wash procedure was repeated three times. 200 μL of substrate solution (one bag of silver and golden tablets of OPD in 20 mL of DI water) was added to each well. The plate was incubated for 20 minutes at room temperature in dark. 50 μL of stop solution (3M HCl) was added to each well. The plate was gently tapped to ensure thorough mixing. The IL-10 concentration was proportional to the optical density determined by a microplate reader at 492 nm.

TAMs/MDSCs [3] = assay: Arginase assay after in vitro TAMs/MDSCs screening; format: cell-based, mouse
Description: as §1, §2
Briefly, after in vitro incubation of isolated TAMs/MDSCs with different drugs in 96 well plates, cells were washed twice with 300 μL PBS. […] Subsequently, 50 μL of the lysate solutions were transferred to a new V-shape 96 well plate. 50 μL of arginase activation solution (10 mM MnCl2/50 mM Tris.Cl (pH 7.5)) were added into the cell lysate. The enzyme was activated by heating for 10 min at 56° C. Arginine hydrolysis was conducted by incubating 25 μL of the activated solution with 25 μL of arginase substrate solution (0.5 M L-arginine (pH 9.7)) at 37° C. for 60 min with mild shaking. After cooling to room temperature, 10 μL of the reaction solution was then diluted into 90 μL of PBS. 10 μL of this diluted solution was transferred to a 96 well flat bottom clear plate. 200 μL of urea reagents were added to each well. After incubation in the dark at room temperature for 10 min, the urea concentration was measured at 520 nm by plate reader.

human MDSCs = assay: IL-10 production by in vitro induced human MDSCs; format: cell-based; conditions: cultured with drugs for 2 days
Description: Human PBMCs from healthy donor were isolated by density gradient centrifugation following standard procedure: […]
Blood was dilute blood with PBS (1:2 dilutions). 15 ml of Ficoll was transferred to a 50 ml tube. 35 ml of diluted blood was carefully placed over the Ficoll medium. The tube was centrifuged at 400 g for 30 min, at 24° C. without brake. After the centrifuge stoped, the tube was carefully removed from the centrifuge while not disturbing the layering. The PBMCs were carefully remove from the tube and transferred to a new 50 mL conical tube. Isolated PBMCs were washed with PBS and centrifuged at 300 g for 10 min. The supernatant was decanted. The pellet was washed once again in PBS and centrifuged at 200 g for 15 min. The isolated PBMCs were counted with the hemocytometer.
Isolated PBMCs were further purified by adhesion in serum free medium for 4 hours at 37° C. at a density of 3×10^6 cell/ml. After removing the suspension cells, adhered PBMCs were cultured in completed RPMI-1640 supplied with 10 ng/ml of IL-6 and GM-CSF for 7 days. Human MDSCs were then sorted by flow as CD33+ cells. Normal human macrophages were differentiated by co-culture PBMCs with completed RPMI-1640 medium for 7 days.
Human MDSCs were cultured with selected drugs for 2 days. The IL-10 production by MDSCs was measured and plotted vs drug concentrations.

MDSCs (CD11b+Gr1+) = assay: MDSCs population (CD11b+Gr1+) in 4T1 solid tumor; format: in vivo, balb/c mice; conditions: tumor digestion at end of therapeutic study
Description: The MDSCs population (CD11b+Gr1+) was tested in groups of untreated control, FA-TLR7 agonist, FA-PI3K inhibitor, FA-Tubulysin and combination as well as competition groups.
As described in previous methods part, after tumor digestion at the end of therapeutic study, isolated cells were stained by MDSCs markers CD11b+Gr1+, see FIG. 26.

[4] = system: F4/80+CD86+ : F4/80+CD206+ macrophages; assay: Ratio of M1 to M2 macrophages in 4T1 solid tumor; format: in vivo, balb/c mice; conditions: tumor digestion at end of therapeutic study
Description: The ratio of M1 to M2 macrophages (F4/80+CD86+: F4/80+CD206+) was tested in groups of untreated control, FA-TLR7 agonist, FA-PI3K inhibitor, FA-Tubulysin and combination as well as competition groups.
As described in the previous methods part, after tumor digestion at the end of therapeutic study, isolated cells were stained by F4/80 macrophage marker and M1 (CD86), M2 (CD206) markers. Macrophages in a tumor environment have been considered as a mainly M2 macrophage function, which can support tumor growth and suppress the immune response. On the other hand, M1 macrophages have been considered to be able to eliminate tumor cells and stimulate an anti-cancer immune response. Therefore, to study the M1 to M2 macrophage ratio is very important for targeting FR-β positive TAMs/MDSCs. […] Therefore, it could be concluded that by targeting FR+ TAMs/MDSCs in 4T1 solid tumor, the three classes of FA-conjugated […] are able to convert immunosuppression M2 macrophages environment to an anti-cancer M1 macrophages environment, which would contribute to the slow growth of a tumor.

F4/80+ macrophages = assay: Intracellular staining of arginase on F4/80+ macrophages from 4T1 solid tumor; format: in vivo, balb/c mice; conditions: tumor digestion at end of therapeutic study
Description: Intracellular arginase staining: Cell surface markers for TAMs/MDSCs were labeled following procedures mentioned previously. 0.1 μL fixable viability dye eFluor® 660 was added together with antibody cocktails. After washing with PBS, cells were fixed with 4% formaldehyde in 500 μL of PBS for 15 min at 4° C. Cells were spun down to remove fixing solution. Cells were washed two times with 500 μL washing buffer containing 0.1 M glycine and 0.05% sodium azide. After being spun down a final time, cells were added 1 mL permeabilization solution containing 0.1 M glycine, 0.05% sodium azide and 0.1% triton-100. Permeabilization was performed at room temperature for 5 min. Permeabilized cells were spun down at 1500 rpm for 1 min, and the cells were washed three times with 1 mL blocking buffer containing 0.05 M glycine, 0.05% sodium azide and 0.2% gelatin. Cells were then re-suspended in 1 mL blocking buffer at 4° C. overnight to block non-specific intracellular binding. Cells were then spun down at 1500 rpm for 1 min to remove the supernatant and another 100 μL blocking buffer containing 1 μL FITC-arginase was added. Cells were kept in the dark at 4° C. overnight. After being spun down at 1500 rpm for 1 min, cells were washed with 1 mL blocking buffer and were then ready for flow cytometry analysis (BD Accuri C6™ flow cytometer). […]

[5] = co-culture with drug, absorbance at 548 nm
[6] = co-culture with drug, absorbance at 520 nm

Structure (SMILES) | nitric oxide production by TAMs/MDSCs in vitro (TAMs/MDSCs [1]; [5]) | IL-10 production by TAMs/MDSCs in vitro (TAMs/MDSCs [2]) | arginase production by TAMs/MDSCs in vitro (TAMs/MDSCs [3]; [6]) | IL-10 production by human MDSCs (human MDSCs) | further results
CC1CCN=C(N)S1 (centres unmarked) [AMT] | efficiently decrease nitric oxide production |  |  |  | 
NC(=O)c1cnc(NCCc2ccc(O)c(Cl)c2)nc1NCc1ccccc1 [AS1517499] | efficiently decrease nitric oxide production | efficiently decrease IL-10 production | efficiently decrease arginase production |  | 
Cn1c(=O)n(-c2ccc(C(C)(C)C#N)cc2)c2c3cc(-c4cnc5ccccc5c4)ccc3ncc21 [BEZ235] | efficiently decrease nitric oxide production | efficiently decrease IL-10 production | efficiently decrease arginase production | decreasing IL-10 production | 
Cc1ccc(-n2nc(C(C)(C)C)cc2NC(=O)Nc2ccc(OCCN3CCOCC3)c3ccccc23)cc1 [BIRB796] | efficiently decrease nitric oxide production | efficiently decrease IL-10 production | efficiently decrease arginase production |  | 
CCCCNc1nc(N)c2[nH]c(=O)n(Cc3ccc(C(=O)NCC(=O)NCCCNCCCCNCCCN)cc3)c2n1 [CL307] |  |  | efficiently decrease arginase production |  | 
Cc1c(CN2CCN(C(=O)C(C)OC(=O)OCCSSCC(NC(=O)CCC(NC(=O)c3ccc(NCc4cnc5nc(N)[nH]c(=O)c5n4)cc3)C(=O)O)C(=O)O)CC2)sc2c(N3CCOCC3)nc(-c3cnc(N)nc3)nc12 (centres unmarked) [FA-PI3K inhibitor] |  |  |  |  | anti-cancer effect on co-injection of 200 times more competitor (FA-PEG-NH2) (4T1 solid tumor; competition group, same schedule): can be competed; tumor growth, therapeutic study (4T1 solid tumor; i.v. 5 days per week for 2 weeks from day 6, 10 nmol FA-TLR7 agonist, 10 nmol FA-PI3K inhibitor, 30 nmol FA-tubulysin): tumor growth was slowed down; MDSCs population (CD11b+Gr1+) vs untreated control (MDSCs (CD11b+Gr1+)): no difference; M1 to M2 macrophages ratio vs untreated control [4]: dramatically increased; arginase+F4/80+ cell population in live cells vs untreated control (F4/80+ macrophages): dramatically decreased
Cc1c(CN2CCN(C(=O)[C@H](C)O)CC2)sc2c(N3CCOCC3)nc(-c3cnc(N)nc3)nc12 [GDC-0980] | best candidate that can efficiently decrease nitric oxide | best candidate that can efficiently decrease IL-10 | best candidate that can efficiently decrease arginase | decreasing IL-10 production | 
CO[C@H]1C[C@@H]2CC[C@@H](C)[C@@](O)(O2)C(=O)C(=O)N2CCCC[C@H]2C(=O)O[C@H]([C@H](C)C[C@@H]2CC[C@@H](OCCO)[C@H](OC)C2)CC(=O)[C@H](C)/C=C(\C)[C@@H](O)[C@@H](OC)C(=O)[C@H](C)C[C@H](C)/C=C/C=C/C=C/1C [everolimus] | efficiently decrease nitric oxide production |  |  |  | 
Nc1cccc2c1CN(C1CCC(=O)NC1=O)C2=O (centres unmarked) [lenalidomide] |  | efficiently decrease IL-10 production |  |  | 
CN(Cc1cnc2nc(N)nc(N)c2n1)c1ccc(C(=O)N[C@@H](CCC(=O)O)C(=O)O)cc1 [methotrexate] | efficiently decrease nitric oxide production |  |  |  | 
CC[C@H](C)[C@H](NC(=O)[C@H]1CCCCN1C)C(=O)N(COC(=O)CC(C)C)[C@H](C[C@@H](OC(C)=O)c1nc(C(=O)N[C@@H](Cc2ccc(C)cc2)C[C@H](C)C(=O)O)cs1)C(C)C [tubulysin] |  | efficiently decrease IL-10 production |  | decreasing IL-10 production | arginase production by TAMs/MDSCs in vitro (TAMs/MDSCs [3]): efficiently decrease arginase production; nitric oxide production by TAMs/MDSCs in vitro (TAMs/MDSCs [1]): efficiently decrease nitric oxide production
CC[C@]1(O)C[C@@H]2CN(CCc3c([nH]c4ccccc34)[C@@](C(=O)OC)(c3cc4c(cc3OC)N(C)[C@H]3[C@@](O)(C(=O)OC)[C@H](OC(C)=O)[C@]5(CC)C=CCN6CC[C@]43[C@@H]65)C2)C1 [vinblastine] |  |  |  | decreasing IL-10 production | 
